{"source": "patent US20250161332A1", "about": "“NON-PSYCHOACTIVE MULTI-CANNABINOID AND POLYSACCHARIDE AND POLYSACCHAROPEPTIDE-BASED THERAPEUTIC COMPOSITIONS AND METHODS OF THEIR ADMINISTRATIO” (Pebble Global Holdings, priority 2021, published 2025)", "key": {"[1]": {"details": "cited from earlier work; for circulating metabolite as percent of the parent based on plasma AUC of cannabidiol: in vivo"}, "[2]": {"test_system": "animal models of epilepsy", "details": "in vivo; cited from earlier work"}, "[3]": {"test_system": "ovarian cancer cell lines", "assay": "Cell viability assay (tetrazolium to formazan), 10 ovarian cancer cell lines", "format": "cell-based", "details": "72 h", "description": "Synergistic relationships for combinations of terpenoids and cannabinoids have been reported Russo, E. B. and J. Marcu, Chapter Three—Cannabis Pharmacology: The Usual Suspects and a Few Promising Leads, in Advances in Pharmacology, D. Kendall and S. P. H. Alexander, Editors. 2017, Academic Press. p. 67-134, the entire disclosure of which is incorporated herein by reference This observed synergy was strongly dependent on the ratio and origin of terpenoids, as shown in triple negative breast cancer models. In addition, many cannabinoids and terpenoids are immune suppressors as reported for alpha-bisabolol, which activates TGF to promote the differentiation of macrophages into the M2 phenotype (tumor promoting) and regulatory T cells. Ovarian cancer cell lines tested included A2780ip2, A2780CP20, HeyA8, HeyA8-MDR, SKOV3 and OVCAR3 and were maintained in RPMI 1640 supplemented with 10-15% fetal bovine serum and 0.1% gentamicin sulfate (available from Gemini Bioproducts, Calabasas, CA, USA). OVCAR5 cells were maintained in Dulbecco's modified Eagle's medium with 10% fetal bovine serum and 0.1% gentamicin sulfate. 1D8 murine ovarian cancer cells were maintained in Dulbecco modified\nEagle medium containing 10% fetal bovine serum (FBS), lx insulin-transferrin-selenium (available from Thermo Fisher Scientific, Waltham, MA), and 0.5% gentamicin. All above cells were cultured at 37° C. using a 5% C02 incubator. All in vitro experiments were performed with 70-80% confluent cultures and a passage number […].\nExample 7. Cell viability assays. Cell viability assays were performed by testing ovarian cancer cells' metabolic ability to reduce the tetrazolium salt 3-(4,5-dimethylthiazol-2-yl)-5-(3-carboxymethoxyphenyl)-2-(4-sulfophenyl)-2H-tetrazolium (inner salt) to a formazan. […] Activities for each reagent were determined using Hill plot analyses (Graphpad Prism 8 software) to assess the half maximal effect—ICso. Results. […]"}, "[4]": {"details": "treatment regimens, cited from earlier work; for nausea and gastrointestinal (GI) AEs, occurrence: single agents"}, "ALL": {"test_system": "ALL", "details": "cited from earlier work"}, "normal endothelial cells": {"test_system": "normal endothelial cells", "details": "cited from earlier work"}, "B16-F10 melanoma": {"test_system": "B16-F10 melanoma", "details": "cited from earlier work"}, "[5]": {"test_system": "leukemia (P388), liver cancer (HepG2), skin melanoma (B16-F10), and myelogenous leukemia (K562)", "details": "range over the four cell lines; cited from earlier work"}, "OVCAR5 Luc": {"test_system": "OVCAR5 Luc", "assay": "In vivo dose finding and efficacy study, orthotopic xenograft model for ovarian cancer", "design": "species or system nude mice", "method": "Example 10. In vivo dose finding and efficacy study. The purpose of this study was to determine the safety and efficacy of single agent CBD and annelix in an orthotopic xenograft model for ovarian cancer. This mouse model resembles the disease of ovarian cancer in humans with development of tumor nodules in the abdominal cavity and development of ascites. Method. Luciferase transfected human ovarian tumor cells, OVCAR5 Luc (1.0 million) were injected into the peritoneal cavity of nude mice, intra peritoneally (i.p.). On day 8 after tumor cell injection IVIS® optical imaging was performed to confirm tumor establishment. […] The study was an approved protocol of the MD Anderson Cancer Center (MDACC) Institutional Animal Care and Use Committee (IACUC). […] Mice were sacrificed on day 32 (post inoculation of cells) and tumors were harvested. Body weights, tumor weight, number of tumor nodules and ascites volumes were recorded. Results: The body weights, tumor weights, tumor nodules and ascites volumes for each of the treatment groups are shown in FIG. 4. […] Control mice received corn oil injections. Body weights were not affected by either the dose of annelix (aq.), nor by the dose of CBD in this study."}, "A2780 and OVCAR5": {"test_system": "A2780 and OVCAR5", "assay": "Reverse Phase Protein Array (RPPA) and Ingenuity Pathway Analysis", "format": "cell-based", "details": "5 μM (CBD content)", "description": "Example 11. Protein Expression Level Effects. […] Results."}, "CB2": {"molecular_target": "CB2 (Homo sapiens, UniProt P34972)", "sequence (P34972 whole entry, species assumed)": "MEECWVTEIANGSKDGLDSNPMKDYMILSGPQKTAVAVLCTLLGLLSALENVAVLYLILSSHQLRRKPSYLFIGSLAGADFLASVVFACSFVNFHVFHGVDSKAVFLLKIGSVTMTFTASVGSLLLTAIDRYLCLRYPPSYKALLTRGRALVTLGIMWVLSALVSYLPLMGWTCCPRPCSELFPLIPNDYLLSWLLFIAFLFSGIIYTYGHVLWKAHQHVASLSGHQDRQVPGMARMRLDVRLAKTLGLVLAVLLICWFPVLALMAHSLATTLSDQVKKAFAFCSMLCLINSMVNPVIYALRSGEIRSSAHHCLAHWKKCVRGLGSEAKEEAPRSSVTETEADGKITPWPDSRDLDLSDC", "details": "cited from earlier work"}, "GPR55": {"molecular_target": "GPR55 (Homo sapiens, UniProt Q9Y2T6)", "sequence (Q9Y2T6 whole entry, species assumed)": "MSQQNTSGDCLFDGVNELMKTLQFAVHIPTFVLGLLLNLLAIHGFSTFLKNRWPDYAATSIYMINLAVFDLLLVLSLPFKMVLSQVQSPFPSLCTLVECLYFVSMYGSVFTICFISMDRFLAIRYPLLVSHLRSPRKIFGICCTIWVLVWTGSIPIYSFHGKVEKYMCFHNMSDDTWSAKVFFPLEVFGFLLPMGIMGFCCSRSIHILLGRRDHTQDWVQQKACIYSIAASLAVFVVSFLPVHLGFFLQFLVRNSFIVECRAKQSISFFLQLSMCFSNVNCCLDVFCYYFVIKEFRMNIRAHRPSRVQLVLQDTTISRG", "details": "cited from earlier work"}, "5 HT1A receptor": {"molecular_target": "T1, 5 HT1A receptor (Homo sapiens, UniProt P08908)", "T1 sequence (P08908 1-422)": "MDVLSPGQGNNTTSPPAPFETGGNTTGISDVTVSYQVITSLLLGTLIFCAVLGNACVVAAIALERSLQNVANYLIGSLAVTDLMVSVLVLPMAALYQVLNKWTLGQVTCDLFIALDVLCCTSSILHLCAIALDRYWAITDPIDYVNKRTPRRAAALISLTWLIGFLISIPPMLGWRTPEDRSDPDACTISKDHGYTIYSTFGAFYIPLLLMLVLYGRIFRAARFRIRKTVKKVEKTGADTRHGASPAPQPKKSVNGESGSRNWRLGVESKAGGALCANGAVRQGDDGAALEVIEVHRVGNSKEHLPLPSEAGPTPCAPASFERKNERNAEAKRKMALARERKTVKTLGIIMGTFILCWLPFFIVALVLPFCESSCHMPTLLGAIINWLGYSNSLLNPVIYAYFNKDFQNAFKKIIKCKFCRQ", "details": "cited from earlier work"}}, "note": "pIC50: −log10 of the molar value.", "data": [{"compound": "C=C(C)[C@@H]1CCC(C(=O)O)=C[C@H]1c1c(O)cc(CCCCC)cc1O", "note": "[7-COOH-CBD, 7-carboxy-cannabidiol]", "values": [{"measurement": "circulating metabolite level relative to parent", "setting": "[1]; higher than the parent cannabidiol", "result": "approximately 40 fold"}, {"measurement": "activity", "setting": "[2]", "result": "inactive"}]}, {"compound": "C=C(C)[C@@H]1CCC(CO)=C[C@H]1c1c(O)cc(CCCCC)cc1O", "note": "[7-OH-CBD, 7-hydroxy-cannabidiol]", "values": [{"measurement": "circulating metabolite as percent of the parent based on plasma AUC of cannabidiol", "setting": "[1]", "result": "approximately 38%"}, {"measurement": "activity", "setting": "[2]", "result": "equipotent and active"}]}, {"compound": "CCCCCc1cc(O)c2c(c1)OC(C)(CCC=C(C)C)C=C2", "note": "(stereo not drawn) [CBC, cannabichromene]", "values": [{"measurement": "pIC50", "setting": "[3]", "result": "4.30 to 4.59"}]}, {"compound": "CC[C@@]1(O)C(=O)OCc2c1cc1n(c2=O)Cc2cc3c(CN(C)C)c(O)ccc3nc2-1", "note": "[topotecan]", "values": [{"measurement": "nausea and gastrointestinal (GI) AEs, occurrence", "setting": "[4]", "result": 63, "unit": "%"}]}, {"compound": "CC(C)=CCC[C@](C)(O)[C@@H]1CC=C(C)CC1", "note": "[alpha-bisabolol, (2S)-6-Methyl-2-[(1S)-4-methylcyclohex-3-en-1-yl]hept-5-en-2-ol]", "values": [{"measurement": "pIC50", "setting": "ALL", "result": 4.14}, {"measurement": "pIC50", "setting": "normal endothelial cells", "result": 5.30}]}, {"compound": "CCCCCc1cc(O)c(C/C=C(\\C)CCC=C(C)C)c(O)c1", "note": "[CBG, cannabigerol]", "values": [{"measurement": "pIC50", "setting": "[3]", "result": "4.46 to 4.77"}]}, {"compound": "Nc1ccn([C@@H]2O[C@H](CO)[C@@H](O)C2(F)F)c(=O)n1", "note": "[gemcitabine]", "values": [{"measurement": "nausea and gastrointestinal (GI) AEs, occurrence", "setting": "[4]", "result": 69, "unit": "%"}]}, {"compound": "C=C(C)[C@@H]1C[C@H](O)C(C)=C[C@H]1c1c(O)cc(CCCCC)cc1O", "note": "[6-OH-CBD, 6-hydroxy-cannabidiol]", "values": [{"measurement": "circulating metabolite as percent of the parent based on plasma AUC of cannabidiol", "setting": "[1]", "result": "< 10", "unit": "%"}]}, {"compound": "N.N.[Cl][Pt][Cl]", "note": "[cisplatinum]", "values": [{"measurement": "Neuropathy and neurological symptoms, occurrence", "setting": "[4]", "result": 94, "unit": "%"}]}, {"compound": "C=C1C2CCC(C2)C1(C)C", "note": "(stereo not drawn) [camphene, 2,2-Dimethyl-3-methyllidenebicyclo[2.2.1]heptane]", "values": [{"measurement": "pIC50", "setting": "B16-F10 melanoma", "result": 3.28}]}, {"compound": "CC1=CC=C(C(C)C)CC1", "note": "[alpha-terpinene, 1-Isopropyl-4-methyl-1,3-cyclohexadiene]", "values": [{"measurement": "pIC50", "setting": "[5]", "result": "3.74 to 4.22"}]}, {"compound": "C=C(C)[C@@H]1CCC(C)=C[C@H]1c1c(O)cc(CCCCC)cc1O", "note": "[CBD, cannabidiol]", "values": [{"measurement": "pIC50", "setting": "[3]", "result": "4.83 to 5.11"}, {"measurement": "tumor burden compared to control group", "setting": "OVCAR5 Luc; 50 mg/kg i.p.", "result": "reduction in tumor burden"}, {"measurement": "ascites volume", "setting": "OVCAR5 Luc; 50 mg/kg i.p., statistical significance not reached", "result": "controlled"}, {"measurement": "body weights", "setting": "OVCAR5 Luc; 1, 10 and 50 mg/kg based on CBD content, i.p., 3 times per week until day 32", "result": "not affected"}, {"measurement": "tolerability / adverse effects", "setting": "OVCAR5 Luc; 1, 10 and 50 mg/kg, i.p., 3 times per week until day 32", "result": "well tolerated and did not cause any adverse effects"}, {"measurement": "most affected pathways versus DMSO", "setting": "A2780 and OVCAR5; 8 and 24 hours", "result": "HER-2 signaling in breast cancer, PI3/AKT signaling, molecular mechanisms of cancer, systemic lupus erythematosus in B cell signaling pathway, and autophagy"}, {"measurement": "most upstream regulators", "setting": "A2780 and OVCAR5; 8 and 24 hours", "result": "p53, AKT, E2F1, beta-estradiol and ERBB2"}, {"measurement": "cell cycle checkpoint and DNA damage repair pathway proteins (Weel, CDC25, Rad51, chkl, ATR, ATM and p53)", "setting": "A2780 and OVCAR5; compared to DMSO control", "result": "very few proteins, including ATR and CDC25, were downregulated"}, {"measurement": "enzymes primarily metabolizing", "setting": "[1]; liver and gut", "result": "CYP2C19, CYP3A4, and UGT1A7, UGT1A9, and UGT2B7"}, {"measurement": "activity", "setting": "[2]", "result": "equipotent and active"}, {"measurement": "affinity for CB2 receptor", "setting": "CB2", "result": "little affinity"}, {"measurement": "mode of action at GPR55", "setting": "GPR55", "result": "antagonist"}, {"measurement": "mode of action at 5 HT1A receptor", "setting": "5 HT1A receptor", "result": "agonist"}]}]}
